Here are results for 9 compounds from patent US11116760B2 (Gilead Sciences, Inc., priority 2018, dated 2021).

For the assay, the target named is α4β7 integrin (Homo sapiens (Human), UniProt P13612+P26010). Nature of the assay: α4β7 Integrin Cell Capture Assay. It is filed as cell-based. Particulars: Table 1; capture of α4β7 expressing RPM18866 cells on MadCAM-1 extracellular domain-coated plate.
α4β7 integrin, sequence (P13612 34-1032): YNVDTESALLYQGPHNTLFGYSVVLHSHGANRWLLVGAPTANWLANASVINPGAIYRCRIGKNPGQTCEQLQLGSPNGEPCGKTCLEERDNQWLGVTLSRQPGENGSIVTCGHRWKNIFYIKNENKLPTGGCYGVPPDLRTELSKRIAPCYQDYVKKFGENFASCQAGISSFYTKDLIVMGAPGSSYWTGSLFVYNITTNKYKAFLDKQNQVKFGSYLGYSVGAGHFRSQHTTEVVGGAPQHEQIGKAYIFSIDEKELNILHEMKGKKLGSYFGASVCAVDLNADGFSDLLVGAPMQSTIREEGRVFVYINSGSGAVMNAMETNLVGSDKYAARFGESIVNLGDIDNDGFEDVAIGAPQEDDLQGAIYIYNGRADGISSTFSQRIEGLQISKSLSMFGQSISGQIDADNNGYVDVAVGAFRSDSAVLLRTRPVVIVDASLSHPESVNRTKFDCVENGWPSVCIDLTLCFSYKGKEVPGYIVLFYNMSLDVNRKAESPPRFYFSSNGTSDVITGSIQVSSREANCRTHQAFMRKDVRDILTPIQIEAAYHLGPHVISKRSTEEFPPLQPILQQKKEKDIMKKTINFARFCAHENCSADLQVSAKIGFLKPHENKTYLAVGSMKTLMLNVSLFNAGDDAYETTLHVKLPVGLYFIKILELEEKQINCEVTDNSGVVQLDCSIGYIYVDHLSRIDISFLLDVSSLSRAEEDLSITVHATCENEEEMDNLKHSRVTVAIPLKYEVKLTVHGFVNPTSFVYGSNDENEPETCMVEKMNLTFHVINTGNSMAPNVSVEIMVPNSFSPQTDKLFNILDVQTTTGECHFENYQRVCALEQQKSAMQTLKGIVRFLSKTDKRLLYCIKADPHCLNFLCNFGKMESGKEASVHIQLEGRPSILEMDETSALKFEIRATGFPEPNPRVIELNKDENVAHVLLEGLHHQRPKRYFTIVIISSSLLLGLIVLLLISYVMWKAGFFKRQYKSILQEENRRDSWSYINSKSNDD
α4β7 integrin, sequence (P26010 20-798): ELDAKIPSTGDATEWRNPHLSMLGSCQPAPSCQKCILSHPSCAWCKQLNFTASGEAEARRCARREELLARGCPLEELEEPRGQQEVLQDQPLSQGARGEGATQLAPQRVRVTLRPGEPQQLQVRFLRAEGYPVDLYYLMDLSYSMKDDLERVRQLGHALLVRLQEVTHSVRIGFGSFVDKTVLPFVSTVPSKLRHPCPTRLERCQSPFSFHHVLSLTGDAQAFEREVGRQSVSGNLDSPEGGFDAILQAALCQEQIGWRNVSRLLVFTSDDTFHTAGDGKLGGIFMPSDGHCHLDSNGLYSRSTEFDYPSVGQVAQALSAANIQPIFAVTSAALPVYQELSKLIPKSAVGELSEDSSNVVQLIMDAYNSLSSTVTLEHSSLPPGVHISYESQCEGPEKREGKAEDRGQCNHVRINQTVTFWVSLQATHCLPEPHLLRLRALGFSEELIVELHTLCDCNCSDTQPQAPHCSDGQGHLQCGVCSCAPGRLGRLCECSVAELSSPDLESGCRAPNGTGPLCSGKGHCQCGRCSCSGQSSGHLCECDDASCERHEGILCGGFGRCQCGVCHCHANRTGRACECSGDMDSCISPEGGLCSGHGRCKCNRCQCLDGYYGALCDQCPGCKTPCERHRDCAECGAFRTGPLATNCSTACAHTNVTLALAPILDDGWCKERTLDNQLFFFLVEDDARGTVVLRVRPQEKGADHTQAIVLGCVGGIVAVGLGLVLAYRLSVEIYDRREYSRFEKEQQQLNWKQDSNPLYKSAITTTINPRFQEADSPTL

On to `CC[C@@H](Nc1cc(F)c(C(=O)N[C@@H](Cc2ccc(-c3c(OC)cc(CN4CCOCC4)cc3OC)c3ncccc23)C(=O)O)c(F)c1)C(F)(F)F` [Example 121, (S)-2-(2,6-difluoro-4-(((R)-1,1,1-trifluorobutan-2-yl)amino)benzamido)-3-(8-(2,6-dimethoxy-4-(morpholinomethyl)phenyl)quinolin-5-yl)propanoic acid], for which it took 1.7 nM to reach a half-maximal effect (EC50).
Consider `CC[C@@H](Nc1cc(F)c(C(=O)N[C@@H](Cc2ccc(-c3c(OC)c4ccccc4n(C)c3=O)c3ncccc23)C(=O)O)c(F)c1)C(F)(F)F` [Example 122, (S)-2-(2,6-difluoro-4-(((R)-1,1,1-trifluorobutan-2-yl)amino)benzamido)-3-(4-methoxy-1-methyl-2-oxo-1,2-dihydro-[3,8′-biquinolin]-5′-yl)propanoic acid], for which the response was half-maximal at 0.2 nM (EC50).
Then `CC[C@@H](Nc1cc(F)c(C(=O)N[C@@H](Cc2ccc(-c3c(C(F)(F)F)c4ccccc4n(C)c3=O)c3ncccc23)C(=O)O)c(F)c1)C(F)(F)F` [Example 123, (S)-2-(2,6-difluoro-4-(((R)-1,1,1-trifluorobutan-2-yl)amino)benzamido)-3-(1-methyl-2-oxo-4-(trifluoromethyl)-1,2-dihydro-[3,8′-biquinolin]-5′-yl)propanoic acid], with 0.9 nM; and `CC[C@@H](Nc1cc(F)c(C(=O)N[C@@H](Cc2ccc(-c3c(C(F)(F)F)c4c(n(C)c3=O)CCC4)c3ncccc23)C(=O)O)c(F)c1)C(F)(F)F` [Example 126, (S)-2-(2,6-difluoro-4-(((R)-1,1,1-trifluorobutan-2-yl)amino)benzamido)-3-(8-(1-methyl-2-oxo-4-(trifluoromethyl)-2,5,6,7-tetrahydro-1H-cyclopenta[b]pyridin-3-yl)quinolin-5-yl)propanoic acid], with 0.6 nM; and `CC[C@@H](Nc1cc(F)c(C(=O)N[C@@H](Cc2ccc(-c3c(C)n(C)c4ccc(F)cc4c3=O)c3ncccc23)C(=O)O)c(F)c1)C(F)(F)F` [Example 127, (S)-2-(2,6-difluoro-4-(((R)-1,1,1-trifluorobutan-2-yl)amino)benzamido)-3-(6-fluoro-1,2-dimethyl-4-oxo-1,4-dihydro-[3,8′-biquinolin]-5′-yl)propanoic acid], with 9.3 nM.
Then `Cc1cc(C(F)(F)F)c(-c2ccc(C[C@H](NC(=O)c3c(F)cc(N[C@H](C)C(F)(F)F)cc3F)C(=O)O)c3cccnc23)c(=O)n1C` [Example 128, (S)-2-(2,6-difluoro-4-(((R)-1,1,1-trifluoropropan-2-yl)amino)benzamido)-3-(8-(1,6-dimethyl-2-oxo-4-(trifluoromethyl)-1,2-dihydropyridin-3-yl)quinolin-5-yl)propanoic acid], with 0.3 nM; and `Cc1cc(C(F)(F)F)c(-c2ccc(C[C@H](NC(=O)c3c(F)cc(N4CCCC[C@@H]4C(F)(F)F)cc3F)C(=O)O)c3cccnc23)c(=O)n1C` [Example 129, (S)-2-(2,6-difluoro-4-((R)-2-(trifluoromethyl)piperidin-1-yl)benzamido)-3-(8-(1,6-dimethyl-2-oxo-4-(trifluoromethyl)-1,2-dihydropyridin-3-yl)quinolin-5-yl)propanoic acid], with 0.7 nM; and `Cc1cc(C(F)(F)F)c(-c2ccc(C[C@H](NC(=O)c3c(F)cc(N4CCOC[C@@H]4CC(F)F)cc3F)C(=O)O)c3cccnc23)c(=O)n1C` [Example 130, (S)-2-(4-((S)-3-(2,2-difluoroethyl)morpholino)-2,6-difluorobenzamido)-3-(8-(1,6-dimethyl-2-oxo-4-(trifluoromethyl)-1,2-dihydropyridin-3-yl)quinolin-5-yl)propanoic acid], with 0.5 nM.
To `Cc1cc(C(F)(F)F)c(-c2ccc(C[C@H](NC(=O)c3c(F)cc(N4CCOC[C@@H]4CC(F)(F)F)cc3F)C(=O)O)c3cccnc23)c(=O)n1C` [Example 131, (S)-2-(2,6-difluoro-4-((S)-3-(2,2,2-trifluoroethyl)morpholino)benzamido)-3-(8-(1,6-dimethyl-2-oxo-4-(trifluoromethyl)-1,2-dihydropyridin-3-yl)quinolin-5-yl)propanoic acid] belongs 0.8 nM.
